Test results taken from the NIST ThermoML archive (doi:10.1021/je800251v).
Numbers after ± are expanded uncertainties.

Settings: Liquid

CCCCC(=O)OCC [ethyl pentanoate]
Settings	mass density [kg/m3]
298.15 K, 100 kPa	870.7 ± 0.8
298.15 K, 1000 kPa	871.5 ± 0.9
298.15 K, 2000 kPa	872.4 ± 0.9
298.15 K, 2780 kPa	873 ± 0.9
298.15 K, 3000 kPa	873.2 ± 0.9
298.15 K, 5000 kPa	875.1 ± 1
298.15 K, 10000 kPa	879.4 ± 1.2
298.15 K, 15000 kPa	883.4 ± 1.3
298.15 K, 20000 kPa	887.3 ± 1.5
298.15 K, 25000 kPa	891 ± 1.6
298.15 K, 30000 kPa	894.6 ± 1.7
298.15 K, 35000 kPa	898.1 ± 1.8
303.15 K, 100 kPa	865.5 ± 0.8
303.15 K, 1000 kPa	866.4 ± 0.9
303.15 K, 2000 kPa	867.4 ± 0.9
303.15 K, 2780 kPa	868.1 ± 0.9
303.15 K, 3000 kPa	868.3 ± 0.9
303.15 K, 5000 kPa	870.1 ± 1
303.15 K, 10000 kPa	874.5 ± 1.2
303.15 K, 15000 kPa	878.7 ± 1.3
303.15 K, 20000 kPa	882.6 ± 1.5
303.15 K, 25000 kPa	886.5 ± 1.6
303.15 K, 30000 kPa	890.2 ± 1.8
303.15 K, 35000 kPa	893.8 ± 1.9
308.15 K, 100 kPa	860.3 ± 0.9
308.15 K, 1000 kPa	861.2 ± 0.9
308.15 K, 2000 kPa	862.1 ± 0.9
308.15 K, 2780 kPa	862.9 ± 1
308.15 K, 3000 kPa	863.1 ± 1
308.15 K, 5000 kPa	865 ± 1
308.15 K, 10000 kPa	869.5 ± 1.2
308.15 K, 15000 kPa	873.8 ± 1.4
308.15 K, 20000 kPa	877.8 ± 1.5
308.15 K, 25000 kPa	881.8 ± 1.7
308.15 K, 30000 kPa	885.6 ± 1.8
308.15 K, 35000 kPa	889.2 ± 1.9
313.15 K, 100 kPa	855 ± 0.9
313.15 K, 1000 kPa	855.9 ± 0.9
313.15 K, 2000 kPa	856.9 ± 0.9
313.15 K, 2780 kPa	857.7 ± 1
313.15 K, 3000 kPa	857.9 ± 1
313.15 K, 5000 kPa	859.9 ± 1.1
313.15 K, 10000 kPa	864.5 ± 1.2
313.15 K, 15000 kPa	868.9 ± 1.4
313.15 K, 20000 kPa	873 ± 1.6
313.15 K, 25000 kPa	877 ± 1.7
313.15 K, 30000 kPa	880.9 ± 1.9
313.15 K, 35000 kPa	884.6 ± 2
318.15 K, 100 kPa	849.8 ± 0.9
318.15 K, 1000 kPa	850.6 ± 0.9
318.15 K, 2000 kPa	851.7 ± 1
318.15 K, 2780 kPa	852.4 ± 1
318.15 K, 3000 kPa	852.7 ± 1
318.15 K, 5000 kPa	854.6 ± 1.1
318.15 K, 10000 kPa	859.4 ± 1.3
318.15 K, 15000 kPa	863.9 ± 1.5
318.15 K, 20000 kPa	868.2 ± 1.6
318.15 K, 25000 kPa	872.3 ± 1.8
318.15 K, 30000 kPa	876.3 ± 1.9
318.15 K, 35000 kPa	880.1 ± 2.1
323.15 K, 100 kPa	844.4 ± 0.9
323.15 K, 1000 kPa	845.3 ± 0.9
323.15 K, 2000 kPa	846.4 ± 1
323.15 K, 2780 kPa	847.2 ± 1
323.15 K, 3000 kPa	847.4 ± 1
323.15 K, 5000 kPa	849.4 ± 1.1
323.15 K, 10000 kPa	854.3 ± 1.3
323.15 K, 15000 kPa	859 ± 1.5
323.15 K, 20000 kPa	863.4 ± 1.7
323.15 K, 25000 kPa	867.6 ± 1.8
323.15 K, 30000 kPa	871.7 ± 2
323.15 K, 35000 kPa	875.5 ± 2.1
328.15 K, 100 kPa	839.1 ± 0.9
328.15 K, 1000 kPa	840 ± 1
328.15 K, 2000 kPa	841.1 ± 1
328.15 K, 2780 kPa	842 ± 1
328.15 K, 3000 kPa	842.3 ± 1
328.15 K, 5000 kPa	844.4 ± 1.1
328.15 K, 10000 kPa	849.4 ± 1.3
328.15 K, 15000 kPa	854.2 ± 1.5
328.15 K, 20000 kPa	858.7 ± 1.7
328.15 K, 25000 kPa	863 ± 1.9
328.15 K, 30000 kPa	867.1 ± 2
328.15 K, 35000 kPa	871.1 ± 2.2
333.15 K, 100 kPa	833.7 ± 0.9
333.15 K, 1000 kPa	834.7 ± 1
333.15 K, 2000 kPa	836 ± 1
333.15 K, 2780 kPa	836.9 ± 1
333.15 K, 3000 kPa	837.1 ± 1.1
333.15 K, 5000 kPa	839.3 ± 1.1
333.15 K, 10000 kPa	844.5 ± 1.4
333.15 K, 15000 kPa	849.5 ± 1.6
333.15 K, 20000 kPa	854.1 ± 1.7
333.15 K, 25000 kPa	858.6 ± 1.9
333.15 K, 30000 kPa	862.9 ± 2.1
333.15 K, 35000 kPa	867 ± 2.2
338.15 K, 100 kPa	828.4 ± 0.9
338.15 K, 1000 kPa	829.5 ± 1
338.15 K, 2000 kPa	830.7 ± 1
338.15 K, 2780 kPa	831.5 ± 1.1
338.15 K, 3000 kPa	831.8 ± 1.1
338.15 K, 5000 kPa	834 ± 1.2
338.15 K, 10000 kPa	839.4 ± 1.4
338.15 K, 15000 kPa	844.5 ± 1.6
338.15 K, 20000 kPa	849.3 ± 1.8
338.15 K, 25000 kPa	853.9 ± 2
338.15 K, 30000 kPa	858.2 ± 2.1
338.15 K, 35000 kPa	862.4 ± 2.3
343.15 K, 100 kPa	823 ± 1
343.15 K, 1000 kPa	824.1 ± 1
343.15 K, 2000 kPa	825.3 ± 1
343.15 K, 2780 kPa	826.2 ± 1.1
343.15 K, 3000 kPa	826.5 ± 1.1
343.15 K, 5000 kPa	828.8 ± 1.2
343.15 K, 10000 kPa	834.4 ± 1.4
343.15 K, 15000 kPa	839.6 ± 1.6
343.15 K, 20000 kPa	844.5 ± 1.8
343.15 K, 25000 kPa	849.2 ± 2
343.15 K, 30000 kPa	853.7 ± 2.2
343.15 K, 35000 kPa	858 ± 2.3
348.15 K, 100 kPa	817.7 ± 1
348.15 K, 1000 kPa	818.7 ± 1
348.15 K, 2000 kPa	820 ± 1.1
348.15 K, 2780 kPa	821 ± 1.1
348.15 K, 3000 kPa	821.3 ± 1.1
348.15 K, 5000 kPa	823.7 ± 1.2
348.15 K, 10000 kPa	829.4 ± 1.4
348.15 K, 15000 kPa	834.8 ± 1.7
348.15 K, 20000 kPa	839.9 ± 1.9
348.15 K, 25000 kPa	844.7 ± 2.1
348.15 K, 30000 kPa	849.3 ± 2.2
348.15 K, 35000 kPa	853.6 ± 2.4
353.15 K, 100 kPa	812.2 ± 1
353.15 K, 1000 kPa	813.3 ± 1
353.15 K, 2000 kPa	814.6 ± 1.1
353.15 K, 2780 kPa	815.6 ± 1.1
353.15 K, 3000 kPa	815.9 ± 1.1
353.15 K, 5000 kPa	818.4 ± 1.2
353.15 K, 10000 kPa	824.3 ± 1.5
353.15 K, 15000 kPa	829.9 ± 1.7
353.15 K, 20000 kPa	835.1 ± 1.9
353.15 K, 25000 kPa	840 ± 2.1
353.15 K, 30000 kPa	844.7 ± 2.3
353.15 K, 35000 kPa	849.1 ± 2.5
363.15 K, 100 kPa	801.2 ± 1
363.15 K, 1000 kPa	802.5 ± 1.1
363.15 K, 2000 kPa	803.9 ± 1.1
363.15 K, 2780 kPa	805 ± 1.2
363.15 K, 3000 kPa	805.5 ± 1.2
363.15 K, 5000 kPa	808.1 ± 1.3
363.15 K, 10000 kPa	814.6 ± 1.5
363.15 K, 15000 kPa	820.5 ± 1.8
363.15 K, 20000 kPa	826 ± 2
363.15 K, 25000 kPa	831.2 ± 2.2
363.15 K, 30000 kPa	836 ± 2.4
363.15 K, 35000 kPa	840.8 ± 2.6
373.15 K, 100 kPa	790.7 ± 1
373.15 K, 1000 kPa	792 ± 1.1
373.15 K, 2000 kPa	793.5 ± 1.2
373.15 K, 2780 kPa	794.7 ± 1.2
373.15 K, 3000 kPa	795 ± 1.2
373.15 K, 5000 kPa	797.9 ± 1.3
373.15 K, 10000 kPa	804.8 ± 1.6
373.15 K, 15000 kPa	810.9 ± 1.8
373.15 K, 20000 kPa	816.7 ± 2.1
373.15 K, 25000 kPa	822.2 ± 2.3
373.15 K, 30000 kPa	827.3 ± 2.5
373.15 K, 35000 kPa	832.3 ± 2.7
383.15 K, 100 kPa	779.9 ± 1.1
383.15 K, 1000 kPa	781.3 ± 1.1
383.15 K, 2000 kPa	783 ± 1.2
383.15 K, 2780 kPa	784.2 ± 1.2
383.15 K, 3000 kPa	784.5 ± 1.2
383.15 K, 5000 kPa	787.6 ± 1.4
383.15 K, 10000 kPa	795 ± 1.6
383.15 K, 15000 kPa	801.5 ± 1.9
383.15 K, 20000 kPa	807.6 ± 2.1
383.15 K, 25000 kPa	813.4 ± 2.4
383.15 K, 30000 kPa	818.9 ± 2.6
383.15 K, 35000 kPa	824 ± 2.8
393.15 K, 100 kPa	769 ± 1.1
393.15 K, 1000 kPa	770.5 ± 1.2
393.15 K, 2000 kPa	772.3 ± 1.2
393.15 K, 2780 kPa	773.6 ± 1.3
393.15 K, 3000 kPa	774.1 ± 1.3
393.15 K, 5000 kPa	777.4 ± 1.4
393.15 K, 10000 kPa	785.1 ± 1.7
393.15 K, 15000 kPa	791.6 ± 2
393.15 K, 20000 kPa	797.7 ± 2.2
393.15 K, 25000 kPa	803.5 ± 2.5
393.15 K, 30000 kPa	809 ± 2.7
393.15 K, 35000 kPa	814 ± 2.9
